According to ChEMBL document CHEMBL1201862, “PubChem BioAssay data set” (2004):
Activity calls are given as the source filed them.

What was measured:
cells [1] = format: functional, cell-based
cells [2] = format: functional, cell-based; remark: listed apart in the source
[3] = biological target: T1, Ubiquitin-conjugating enzyme E2 N (Homo sapiens, UniProt P61088); format: functional;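 further: Dose-response confirmation in a TR-FRET assay detecting UBC13-driven polyubiquitin chain formation, inhibition measured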
T1 sequence (P61088 whole entry): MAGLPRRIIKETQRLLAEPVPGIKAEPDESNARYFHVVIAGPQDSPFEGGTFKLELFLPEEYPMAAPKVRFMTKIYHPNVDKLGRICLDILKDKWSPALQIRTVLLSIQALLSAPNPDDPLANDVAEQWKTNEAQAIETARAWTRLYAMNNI

[4] = reduction of Shn3 3'UTR-driven luciferase in osteoblasts – cell-based, Clone20 osteoblasts, firefly luciferase, cherry-picked, dose response (AID 624132); format: functional;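 further: firefly luciferase luminescence from reporter carrying the Shn3 3'UTR in osteoblasts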
[5] = loss of viability in HepG2 cells – cell-based, CellTiter-Glo, cherry-picked, cytotoxicity control for Shn3 inhibitor project, dose response (AID 624134); format: functional
[6] = non-specific 3'UTR reporter inhibition in Clone20-Shn3RL – cell-based, Renilla luciferase, cherry-picked, counter-screen for Shn3 inhibitor project, dose response (AID 624133); format: functional
Cytochrome P450 1A2 = biological target: T2, Cytochrome P450 1A2 (Homo sapiens, UniProt P05177);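 further: PubChem cytochrome P450 panel assay, CYP1A2 panel member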
T2 sequence (P05177 whole entry): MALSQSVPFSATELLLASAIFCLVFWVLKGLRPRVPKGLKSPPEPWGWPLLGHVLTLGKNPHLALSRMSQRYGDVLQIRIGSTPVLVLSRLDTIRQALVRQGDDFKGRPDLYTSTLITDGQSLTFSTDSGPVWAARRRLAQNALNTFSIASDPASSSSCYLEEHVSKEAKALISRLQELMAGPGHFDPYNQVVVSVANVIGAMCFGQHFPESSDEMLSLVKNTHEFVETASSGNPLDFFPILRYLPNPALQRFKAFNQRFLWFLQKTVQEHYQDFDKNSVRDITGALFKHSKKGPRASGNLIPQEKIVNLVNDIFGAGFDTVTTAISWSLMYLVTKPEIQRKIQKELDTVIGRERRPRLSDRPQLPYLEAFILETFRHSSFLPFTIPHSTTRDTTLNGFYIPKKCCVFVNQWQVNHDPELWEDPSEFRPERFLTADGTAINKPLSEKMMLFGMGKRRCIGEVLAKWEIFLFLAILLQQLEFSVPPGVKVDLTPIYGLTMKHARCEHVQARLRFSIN

Cytochrome P450 2C9 = Cytochrome P450 2C9 (Homo sapiens, UniProt P11712)
Sequence of Cytochrome P450 2C9 (P11712 whole entry): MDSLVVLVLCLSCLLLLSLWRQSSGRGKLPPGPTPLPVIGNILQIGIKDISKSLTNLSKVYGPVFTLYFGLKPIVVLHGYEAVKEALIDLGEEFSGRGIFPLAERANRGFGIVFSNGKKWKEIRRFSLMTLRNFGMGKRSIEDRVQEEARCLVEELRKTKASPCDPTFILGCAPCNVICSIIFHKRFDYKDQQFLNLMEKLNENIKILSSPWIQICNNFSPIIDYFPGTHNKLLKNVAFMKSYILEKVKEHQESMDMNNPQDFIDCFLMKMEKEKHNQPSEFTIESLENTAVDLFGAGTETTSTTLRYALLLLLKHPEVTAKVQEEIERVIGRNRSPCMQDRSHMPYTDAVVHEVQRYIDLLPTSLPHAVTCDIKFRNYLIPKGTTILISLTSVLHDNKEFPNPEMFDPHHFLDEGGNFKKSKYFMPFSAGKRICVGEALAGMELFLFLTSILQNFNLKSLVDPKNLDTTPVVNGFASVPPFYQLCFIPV

P388/ADR = experiment: cells; format: functional; conditions: Mus musculus
SN12K1 = experiment: cells; format: functional; conditions: Homo sapiens
P388 = experiment: cells; format: functional; conditions: Mus musculus
cells [7] = format: functional
[8] = biological target: T3, Endoribonuclease toxin MazF (Escherichia coli K-12, UniProt P0AE70); experiment: activation of MazEF endoribonuclease cleavage – biochemical, fluorescence, single-stranded RNA substrate, uHTS hits, dose response (AID 588481); format: functional
T3 sequence (P0AE70 whole entry): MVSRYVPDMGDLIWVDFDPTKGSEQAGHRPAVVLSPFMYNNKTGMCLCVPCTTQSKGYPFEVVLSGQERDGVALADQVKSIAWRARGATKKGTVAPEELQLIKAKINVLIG

[9] = biological target: T3, Endoribonuclease toxin MazF; experiment: substrate-only fluorescence increase artefacts – biochemical, single-stranded RNase substrate, counter-screen for MazEF activator project, dose response (AID 588502); format: functional
Cytochrome P450 3A4 = Cytochrome P450 3A4 (Homo sapiens, UniProt P08684); conditions: Potency;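 further: confirmatory qHTS run detecting inhibitors and substrates of CYP3A4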
Sequence of Cytochrome P450 3A4 (P08684 whole entry): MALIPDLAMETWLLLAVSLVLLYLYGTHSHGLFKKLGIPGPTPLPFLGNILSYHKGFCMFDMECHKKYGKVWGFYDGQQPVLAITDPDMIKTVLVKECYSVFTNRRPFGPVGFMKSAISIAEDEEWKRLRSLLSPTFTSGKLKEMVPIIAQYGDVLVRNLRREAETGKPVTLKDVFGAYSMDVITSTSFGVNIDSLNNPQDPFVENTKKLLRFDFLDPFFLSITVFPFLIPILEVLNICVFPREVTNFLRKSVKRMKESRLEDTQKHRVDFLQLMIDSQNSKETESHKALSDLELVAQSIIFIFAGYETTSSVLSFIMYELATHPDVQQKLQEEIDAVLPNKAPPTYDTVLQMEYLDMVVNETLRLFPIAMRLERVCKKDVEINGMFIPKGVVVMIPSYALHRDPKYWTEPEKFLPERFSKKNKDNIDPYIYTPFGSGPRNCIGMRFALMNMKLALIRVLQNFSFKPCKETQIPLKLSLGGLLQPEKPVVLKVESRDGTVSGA

[10] = NIH-3T3 fibroblast cytotoxicity, dose response, cytotoxicity control, cell-based, fluorescence, Alamar Blue, secondary assay (AID 2327); format: functional;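 further: NIH-3T3 mouse fibroblasts cultured with fluconazole at 8 µg/mL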
[11] = fluconazole-exposed Candida albicans growth modulators – fluorescence, retest, confirmation (AID 2467); format: functional, cell-based
[12] = biological target: T4, Calpain-2 catalytic subunit (Sus scrofa, UniProt P43367); experiment: m-calpain protease blockers, concentration series – biochemical, fluorogenic peptide substrate, dose response (AID 1420); format: functional
T4 sequence (P43367 whole entry): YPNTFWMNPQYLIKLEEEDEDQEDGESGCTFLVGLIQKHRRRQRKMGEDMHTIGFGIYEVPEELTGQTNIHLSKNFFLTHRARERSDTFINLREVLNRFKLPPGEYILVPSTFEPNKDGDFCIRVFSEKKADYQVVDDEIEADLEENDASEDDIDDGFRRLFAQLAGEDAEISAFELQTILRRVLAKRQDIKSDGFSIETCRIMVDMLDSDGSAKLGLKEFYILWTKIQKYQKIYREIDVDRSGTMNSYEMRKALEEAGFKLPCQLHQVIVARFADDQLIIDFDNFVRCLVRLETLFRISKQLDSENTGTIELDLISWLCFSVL

[13] = THP-1 cell cytotoxicity, dose response, cytotoxicity control for non-replicating M. tuberculosis project (AID 489025); format: functional
[14] = biological target: T5, Rac GTPase-activating protein 1 (Homo sapiens, UniProt Q9H0H5); experiment: blockers of MgcRacGAP-driven Rac1 GTP hydrolysis – biochemical, ADP Hunter fluorescence, primary and confirmatory, confirmation (AID 624330); format: functional
T5 sequence (Q9H0H5 whole entry): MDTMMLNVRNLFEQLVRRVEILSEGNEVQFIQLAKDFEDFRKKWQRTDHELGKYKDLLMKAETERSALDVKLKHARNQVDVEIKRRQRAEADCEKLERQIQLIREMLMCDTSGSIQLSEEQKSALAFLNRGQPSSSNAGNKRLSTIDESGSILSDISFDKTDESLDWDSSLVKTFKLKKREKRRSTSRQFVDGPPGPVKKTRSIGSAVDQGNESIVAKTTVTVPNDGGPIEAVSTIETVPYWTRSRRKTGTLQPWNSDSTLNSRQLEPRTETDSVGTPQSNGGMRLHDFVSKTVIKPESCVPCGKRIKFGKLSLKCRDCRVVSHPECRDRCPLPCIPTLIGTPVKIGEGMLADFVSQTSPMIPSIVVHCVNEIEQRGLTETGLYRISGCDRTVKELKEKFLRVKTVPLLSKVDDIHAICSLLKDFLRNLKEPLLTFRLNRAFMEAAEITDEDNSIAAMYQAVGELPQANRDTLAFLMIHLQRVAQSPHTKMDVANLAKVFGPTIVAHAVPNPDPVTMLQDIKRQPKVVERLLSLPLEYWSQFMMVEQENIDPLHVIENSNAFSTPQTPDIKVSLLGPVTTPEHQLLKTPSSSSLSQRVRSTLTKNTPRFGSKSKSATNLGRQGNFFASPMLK

Cytochrome P450 2C19 = Cytochrome P450 2C19 (Homo sapiens, UniProt P33261); experiment: Cytochrome panel assay with activity outcomes. Panel member name: p450-cyp2c19 Compounds with AC50 equal or less than 10 uM are considered active; format: functional; conditions: read-out: AC50
Sequence of Cytochrome P450 2C19 (P33261 whole entry): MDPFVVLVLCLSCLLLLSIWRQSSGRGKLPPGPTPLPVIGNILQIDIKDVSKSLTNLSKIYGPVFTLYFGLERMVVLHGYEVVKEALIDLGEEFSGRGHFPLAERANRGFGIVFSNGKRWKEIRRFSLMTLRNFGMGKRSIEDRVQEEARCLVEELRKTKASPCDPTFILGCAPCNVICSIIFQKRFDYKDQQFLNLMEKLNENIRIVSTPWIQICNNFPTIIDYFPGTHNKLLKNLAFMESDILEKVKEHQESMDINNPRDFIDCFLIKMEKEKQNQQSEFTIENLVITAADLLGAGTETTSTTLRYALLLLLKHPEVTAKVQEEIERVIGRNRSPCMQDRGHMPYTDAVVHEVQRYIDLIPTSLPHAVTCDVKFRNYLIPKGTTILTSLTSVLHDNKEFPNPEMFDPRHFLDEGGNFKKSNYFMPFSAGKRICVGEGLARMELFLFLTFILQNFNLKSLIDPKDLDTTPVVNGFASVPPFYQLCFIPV

[15] = viability of PTEN-deleted HCT116 cells – cell-based, HCT116 PTEN knockout, dose response (AID 1047); format: functional;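 further: HCT116 colon tumor cells with PTEN knocked out; cells exposed to compound for 60 hours before readout; potency for loss of cell viability measured by luminescence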
[16] = viability of HCT116 lacking mutant beta-catenin – cell-based, human colon tumor, dose response (AID 1045); format: functional;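 further: HCT116 colon tumor cells with beta catenin knocked out; cells exposed to compound for 60 hours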

O=C(NCC(=O)N(Cc1ccco1)C(C(=O)NC1CCCCC1)c1cccnc1)c1cccs1 (stereo not drawn)
EC50 (cells [1]): > 350 µM (not active) | EC50 (cells [2]): > 350 µM (not active)

CCN1C(=O)c2cccc3c(NC(=O)c4ccc(S(=O)(=O)N(C)C)cc4)ccc1c23
IC50 [3]: > 20 µM (inactive)

O=C(Nc1cccc(F)c1)c1cc(S(=O)(=O)NCCC2=CCCCC2)ccc1F
IC50 [3]: > 20 µM (inactive) | AC50 [4]: 4.16 µM (active) | AC50 [5]: 39.8 µM (active) | AC50 [6]: 13.9 µM (active)

Cc1ccc(C(=O)O/N=C/c2c(Cl)n(C)c3ccccc23)cc1
AC50 (Cytochrome P450 1A2): 1.12 µM (inconclusive) | AC50 (Cytochrome P450 2C9): inconclusive

Nc1c(S(=O)(=O)O)cc2cc(S(=O)(=O)O)ccc2c1/N=N/c1ccc(-c2ccc(/N=N/c3c(N)c(S(=O)(=O)O)cc4cc(S(=O)(=O)O)ccc34)c(S(=O)(=O)O)c2)cc1
GI50 (P388/ADR): > 100 µM (inactive) | GI50 (SN12K1): > 100 µM (inactive) | GI50 (P388): > 79.6 µM (inactive)

Cc1ccc(C(=O)Nc2ccc3c(c2)nc(CCNC(=O)c2ccco2)n3C)cc1
EC50 (cells [1]): > 350 µM (not active) | EC50 (cells [2]): > 350 µM (not active)

O=c1oc(/C=C/c2ccc([N+](=O)[O-])s2)nc2ccccc12
IC50 (cells [7]): 10.7 µM (active) | EC50 [8]: > 99 µM (inactive) | EC50 [9]: > 99 µM (inactive)

CCN(CC)CCCCn1c(-c2ccccc2)nc2c(N3CCOCC3)nc(C)nc21
AC50 (Cytochrome P450 3A4): 7.94 µM (inconclusive)

N#CCCn1c(=O)c(-c2ccc(Cl)cc2)nc2cnc(N3CCOCC3)nc21
AC50 (Cytochrome P450 2C9): inconclusive

C#CCN1C(=O)S/C(=C\c2cc3c(cc2OC)OCO3)C1=O
EC50 [8]: 12.5 µM (active) | EC50 [9]: 17.1 µM (active)

CC(C)=NOC(=O)c1c(C)noc1-c1snnc1C
EC50 (cells [1]): > 350 µM (not active) | EC50 (cells [2]): > 350 µM (not active)

O=C(O)c1cccc(CSc2nc(-c3ccccc3)cc(C(F)(F)F)n2)c1
EC50 [10]: > 150 µM (inactive) | EC50 [11]: 5.9 µM (active)

CC(=O)Nc1ccc(Nc2nc(C)c([N+](=O)[O-])c(Nc3ccc(NC(C)=O)cc3)n2)cc1
EC50 (cells [1]): > 350 µM (not active) | EC50 (cells [2]): > 350 µM (not active)

Cc1nn(C)cc1S(=O)(=O)NCc1ccc2c(c1)OCO2
EC50 (cells [1]): > 350 µM (not active) | EC50 (cells [2]): > 350 µM (not active)

CCCCN(C(=O)c1c(C)[nH]c(C(=O)OCC)c1C)c1ccccc1
EC50 (cells [1]): > 350 µM (not active) | EC50 (cells [2]): > 350 µM (not active)

CCC(=O)c1cn(CC(=O)Nc2ccccc2Cl)c2ccccc12
EC50 [8]: > 99 µM (inactive) | EC50 [9]: > 99 µM (inactive) | AC50 [4]: < 0.26 µM (active) | AC50 [6]: 6.05 µM (active)

COc1ccc(C(=O)N(CN2CCCC2=O)c2ccc(C)cc2)cc1
EC50 [10]: 66 µM (active) | EC50 [11]: > 38 µM (not active)

COc1cccc(N)c1
AC50 (Cytochrome P450 3A4): 31.6 µM (inconclusive)

CC(C)Cn1c(N)c(C(=O)COC(=O)c2cnc(Cl)c(Cl)c2)c(=O)n(C)c1=O
IC50 [12]: 15.3 µM (not active) | CC50 [13]: 25.7 µM (active) | IC50 (cells [7]): 13.2 µM (active)

c1ccc(C(c2ccccc2)[P+](c2ccccc2)(c2ccccc2)c2ccccc2)cc1
GI50 (P388/ADR): 12.4 µM (inactive) | GI50 (SN12K1): 0.345 µM (active) | GI50 (P388): 0.382 µM (active)

Cn1c(=O)c2c(ncn2Cc2ccc(Cl)cc2)n(C)c1=O
IC50 [3]: > 20 µM (inactive)

Cn1c(=O)cc(N)n(Cc2ccccc2)c1=O
AC50 (Cytochrome P450 3A4): 39.8 µM (inconclusive)

Cn1cc(CC(=O)N2CCN(c3ccc(Cl)cc3)CC2)c2ccccc21
EC50 (cells [1]): > 350 µM (not active) | EC50 (cells [2]): > 350 µM (not active)

CCC1=C2CC[C@H]3C(=O)N(CC(=O)OC)C(=O)[C@H]3[C@H]2[C@@]2(C)/C(=N/CC(=O)OC)OC(=O)N2C1=O
AC50 (Cytochrome P450 3A4): 25.1 µM (inconclusive)

CCCN1C(=O)S/C(=C\c2ccc(N3CCOCC3)o2)C1=O
IC50 (cells [7]): 21.9 µM (active) | AC50 [4]: 6.37 µM (active) | AC50 [5]: > 70 µM (inactive) | AC50 [6]: 25.8 µM (active)

CC(=O)c1cc(C#N)c(N2CCCC2)nc1C
EC50 [10]: > 160 µM (inactive) | EC50 [11]: > 38 µM (not active)

COc1ccc(CN2C(=O)c3cccc4cccc2c34)cc1F
IC50 [3]: > 20 µM (inactive)

COC(=O)CCCCCN1C(=O)NC(c2ccccc2)C(C(=O)OCc2ccccc2)=C1C (stereo not drawn)
AC50 (Cytochrome P450 3A4): 10 µM (inconclusive)

CCCCN1CCC(n2c(=O)[nH]c3ccccc32)CC1
AC50 (Cytochrome P450 2C9): inconclusive

COc1ccccc1[C@@H]1C(c2cccc(C)c2)=NN(c2ccccc2)[C@H]1C(=O)N1CCOC1=O
IC50 [3]: > 20 µM (inactive)

OCc1cc(O)c(OCc2ccccc2)cn1
EC50 (cells [1]): > 350 µM (not active) | EC50 (cells [2]): > 350 µM (not active)

C/C(=N\NC(=O)CSCc1ccccc1Cl)c1cc(O)ccc1O
EC50 [10]: > 160 µM (inactive) | EC50 [11]: > 38 µM (not active) | IC50 [14]: 24.3 µM (active)

C[C@H](NC(=O)/C(C#N)=C/c1ccc(O)c(O)c1)c1ccccc1
AC50 (Cytochrome P450 2C19): 31.6 µM (inconclusive) | AC50 (Cytochrome P450 2C9): inconclusive

CSc1nc(SC)c2cnn(CC3CO3)c2n1 (stereo not drawn)
GI50 (P388/ADR): 11.5 µM (inactive) | GI50 (SN12K1): 8.2 µM (inactive) | GI50 (P388): 15.6 µM (inactive)

COc1cc2cc3c4cc(OC)c(OC)cc4cc[n+]3cc2cc1OC
GI50 (P388/ADR): 12.6 µM (inactive) | GI50 (SN12K1): > 61.9 µM (inactive) | GI50 (P388): 0.881 µM (active)

O=C1c2cccc3cccc(c23)C(=O)N1CCc1ccccc1
IC50 [3]: > 20 µM (inactive)

COc1cccc2c1C(=O)c1c(O)c3c(c(O)c1C2=O)CC(O)(C(=O)CO)CC3OC1CC(N)C(I)C(C)O1 (stereo not drawn)
GI50 (P388/ADR): 0.547 µM (active) | GI50 (P388): 0.0612 µM (active)

O=C(CSc1nc(-c2ccco2)cc(C(F)(F)F)n1)Nc1ccc(C(=O)N2CCCCC2)cc1
EC50 [15]: 62.7 µM (active) | EC50 [16]: 28.8 µM (active) | AC50 [4]: 2.87 µM (active) | AC50 [5]: 51 µM (active) | AC50 [6]: 0.774 µM (active)

CCC(=O)c1ccc(OCc2ccc(C(=O)c3ccccc3)cc2)cc1
AC50 [4]: 3.29 µM (active) | AC50 [5]: 26.3 µM (active) | AC50 [6]: 5.86 µM (active)
